Measurements as given in patent publication US20160263221A1, “MULTI-RESPONSIVE TARGETING DRUG DELIVERY SYSTEMS FOR CONTROLLED-RELEASE PHARMACEUTICAL FORMULATION” (priority 2013, published 2016).

Tested on: HeLa tumor
Test: therapeutic efficacy in HeLa tumor bearing SCID mice, volume of cancer as a function of time
Type: in vivo
Settings: FIG. 6
Text: The inventors determine the therapeutic efficacy of the multi-responsive targeting nano-containers of the present invention using HeLa tumor bearing SCID mice and monitor the volume of cancer as a function of time.

COc1cccc2c1C(=O)c1c(O)c3c(c(O)c1C2=O)C[C@@](O)(C(=O)CO)C[C@@H]3O[C@H]1C[C@H](N)[C@H](O)[C@H](C)O1 [Doxorubicin, doxorubicin]
volume of the cancer as a function of time: the volume of the cancer increases with time
